For data set [1], the target named is T1, High affinity 3',5'-cyclic-AMP phosphodiesterase 7A (Homo sapiens, UniProt Q13946). Nature of the data set: Inhibition of cloned human recombinant PDE7A assessed as [3H]cAMP hydrolysis at 1 uM by radiometric assay.
Data set [2] concerns the target T1, High affinity 3',5'-cyclic-AMP phosphodiesterase 7A. The data set is described as follows: Inhibition of cloned human recombinant PDE7A assessed as [3H]cAMP hydrolysis by radiometric assay.
The nature of data set [3]: Ratio of drug level in brain to plasma in C57 mouse at 10 mg/kg, ip after 30 mins. It counts as ADME, organism-based. The arrangement: dose 10 mg/kg, route intraperitoneal. To be noted: read-out: BPR.
Data set [4] in a line: AUC in C57 mouse at 10 mg/kg, ip. It counts as ADME, organism-based. The arrangement: dose 10 mg/kg, route intraperitoneal. The following applies: plasma.
The species named for data set [5] is Homo sapiens. Nature of the data set: Selectivity ratio of IC50 for cloned human recombinant PDE4D to IC50 for cloned human recombinant PDE7A.
The target of data set [6] is Dual specificity calcium/calmodulin-dependent 3',5'-cyclic nucleotide phosphodiesterase 1A (Homo sapiens) (UniProt P54750). The data set is described as follows: Inhibition of cloned human recombinant PDE1A assessed as [3H]cAMP hydrolysis at 10 uM by radiometric assay.
The nature of data set [7]: Metabolic stability in human liver microsomes assessed as compound remaining after 60 mins. Type of data set: ADME, Microsome. To be noted: read-out: Stability. For orientation: Liver microsomes are vesicles of endoplasmic reticulum, rich in cytochrome P450 enzymes.
Data set [8] deals with cAMP and cAMP-inhibited cGMP 3',5'-cyclic phosphodiesterase 10A (Homo sapiens) (UniProt Q9Y233). Nature of the data set: Inhibition of cloned human recombinant PDE10A assessed as [3H]cAMP hydrolysis at 10 uM by radiometric assay.
cAMP and cAMP-inhibited cGMP 3',5'-cyclic phosphodiesterase 10A (Homo sapiens), sequence (Q9Y233 whole entry): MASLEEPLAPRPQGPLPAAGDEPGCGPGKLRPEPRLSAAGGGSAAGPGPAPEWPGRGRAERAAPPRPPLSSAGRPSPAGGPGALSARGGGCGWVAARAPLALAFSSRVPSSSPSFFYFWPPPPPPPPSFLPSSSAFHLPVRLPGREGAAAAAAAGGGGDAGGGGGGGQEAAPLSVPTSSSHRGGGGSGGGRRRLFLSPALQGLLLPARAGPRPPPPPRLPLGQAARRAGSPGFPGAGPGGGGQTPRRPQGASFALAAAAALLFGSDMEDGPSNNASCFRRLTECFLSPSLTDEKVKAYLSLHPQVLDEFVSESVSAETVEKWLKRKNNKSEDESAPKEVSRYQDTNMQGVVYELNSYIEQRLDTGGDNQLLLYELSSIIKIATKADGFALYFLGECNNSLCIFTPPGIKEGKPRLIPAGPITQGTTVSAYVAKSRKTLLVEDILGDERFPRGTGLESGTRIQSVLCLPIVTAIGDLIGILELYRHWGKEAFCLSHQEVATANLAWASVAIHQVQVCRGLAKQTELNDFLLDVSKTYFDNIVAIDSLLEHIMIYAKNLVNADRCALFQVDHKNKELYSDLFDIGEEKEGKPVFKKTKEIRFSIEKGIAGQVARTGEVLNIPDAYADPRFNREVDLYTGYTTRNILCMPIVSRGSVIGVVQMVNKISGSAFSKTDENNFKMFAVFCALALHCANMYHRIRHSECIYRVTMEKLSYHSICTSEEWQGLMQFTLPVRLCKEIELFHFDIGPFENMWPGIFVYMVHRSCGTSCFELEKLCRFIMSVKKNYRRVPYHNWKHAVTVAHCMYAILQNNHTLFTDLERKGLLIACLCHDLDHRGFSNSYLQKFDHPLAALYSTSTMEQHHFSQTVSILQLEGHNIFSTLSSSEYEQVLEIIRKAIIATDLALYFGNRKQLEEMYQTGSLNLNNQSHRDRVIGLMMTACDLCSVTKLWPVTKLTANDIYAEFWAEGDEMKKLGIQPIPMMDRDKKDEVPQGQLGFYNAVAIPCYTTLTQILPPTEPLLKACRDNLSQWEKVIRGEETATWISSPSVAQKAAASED
For data set [9], the target named is cGMP-dependent 3',5'-cyclic phosphodiesterase (Homo sapiens) (UniProt O00408). Nature of the data set: Inhibition of cloned human recombinant PDE2A assessed as [3H]cAMP hydrolysis at 10 uM by radiometric assay.
cGMP-dependent 3',5'-cyclic phosphodiesterase (Homo sapiens), sequence (O00408 whole entry): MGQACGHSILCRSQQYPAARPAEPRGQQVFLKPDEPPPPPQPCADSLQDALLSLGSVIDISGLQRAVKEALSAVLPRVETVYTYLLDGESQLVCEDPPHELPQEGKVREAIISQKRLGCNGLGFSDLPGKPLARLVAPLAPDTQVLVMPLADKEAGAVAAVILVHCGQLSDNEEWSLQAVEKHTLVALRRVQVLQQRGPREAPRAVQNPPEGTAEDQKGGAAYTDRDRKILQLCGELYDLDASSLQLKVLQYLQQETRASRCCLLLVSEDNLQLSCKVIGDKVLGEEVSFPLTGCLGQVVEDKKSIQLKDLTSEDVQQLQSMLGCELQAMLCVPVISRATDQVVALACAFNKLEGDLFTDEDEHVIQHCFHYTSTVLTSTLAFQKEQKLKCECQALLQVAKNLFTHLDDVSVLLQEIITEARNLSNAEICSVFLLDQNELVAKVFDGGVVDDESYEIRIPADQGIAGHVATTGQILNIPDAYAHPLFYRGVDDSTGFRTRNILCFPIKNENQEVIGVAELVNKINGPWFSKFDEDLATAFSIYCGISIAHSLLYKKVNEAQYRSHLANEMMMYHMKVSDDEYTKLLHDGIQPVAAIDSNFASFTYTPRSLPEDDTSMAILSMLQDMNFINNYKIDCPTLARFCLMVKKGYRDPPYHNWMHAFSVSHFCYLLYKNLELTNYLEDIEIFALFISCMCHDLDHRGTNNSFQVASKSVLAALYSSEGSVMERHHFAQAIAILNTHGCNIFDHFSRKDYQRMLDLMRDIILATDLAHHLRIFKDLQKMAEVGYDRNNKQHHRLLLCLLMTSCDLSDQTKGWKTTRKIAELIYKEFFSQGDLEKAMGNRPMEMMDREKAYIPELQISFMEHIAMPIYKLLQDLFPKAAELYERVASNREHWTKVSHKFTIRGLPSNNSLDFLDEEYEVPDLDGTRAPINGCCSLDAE
In data set [10] the target is High affinity cAMP-specific and IBMX-insensitive 3',5'-cyclic phosphodiesterase 8A (Homo sapiens) (UniProt O60658). Nature of the data set: Inhibition of cloned human recombinant PDE8A1 assessed as [3H]cAMP hydrolysis at 10 uM by radiometric assay.
In data set [11] the target is T2, 3',5'-cyclic-AMP phosphodiesterase 4D (Homo sapiens, UniProt Q08499). The data set is described as follows: Inhibition of cloned human recombinant PDE4D assessed as [3H]cAMP hydrolysis by radiometric assay.
T2 sequence (Q08499 whole entry): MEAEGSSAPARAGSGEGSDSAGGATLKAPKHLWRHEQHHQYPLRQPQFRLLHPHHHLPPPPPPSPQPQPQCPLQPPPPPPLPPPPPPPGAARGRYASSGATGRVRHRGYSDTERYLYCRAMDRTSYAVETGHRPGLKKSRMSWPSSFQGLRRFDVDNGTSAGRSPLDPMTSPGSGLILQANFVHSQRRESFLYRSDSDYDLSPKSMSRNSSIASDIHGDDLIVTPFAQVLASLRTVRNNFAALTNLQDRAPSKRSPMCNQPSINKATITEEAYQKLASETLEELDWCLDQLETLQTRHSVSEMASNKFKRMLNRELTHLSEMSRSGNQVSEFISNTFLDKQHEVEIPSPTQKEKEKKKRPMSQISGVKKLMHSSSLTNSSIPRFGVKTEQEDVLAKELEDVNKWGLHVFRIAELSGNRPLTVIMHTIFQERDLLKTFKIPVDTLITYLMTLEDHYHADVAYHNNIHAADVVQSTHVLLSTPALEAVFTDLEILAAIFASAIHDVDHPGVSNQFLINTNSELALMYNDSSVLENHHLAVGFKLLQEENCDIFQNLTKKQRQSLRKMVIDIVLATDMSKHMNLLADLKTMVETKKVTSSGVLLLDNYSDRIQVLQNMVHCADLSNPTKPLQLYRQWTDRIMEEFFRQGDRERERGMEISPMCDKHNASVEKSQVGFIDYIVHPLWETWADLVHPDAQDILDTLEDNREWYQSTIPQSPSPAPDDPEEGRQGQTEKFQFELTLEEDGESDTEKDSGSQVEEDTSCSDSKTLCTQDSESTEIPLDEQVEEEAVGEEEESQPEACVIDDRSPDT
Data set [12] deals with cGMP-inhibited 3',5'-cyclic phosphodiesterase 3A (Homo sapiens) (UniProt Q14432). Nature of the data set: Inhibition of cloned human recombinant PDE3A assessed as [3H]cAMP hydrolysis at 10 uM by radiometric assay.
Data set [13] deals with High affinity cGMP-specific 3',5'-cyclic phosphodiesterase 9A (Homo sapiens) (UniProt O76083). Nature of the data set: Inhibition of cloned human recombinant PDE9A2 assessed as [3H]cAMP hydrolysis at 10 uM by radiometric assay.
High affinity cGMP-specific 3',5'-cyclic phosphodiesterase 9A (Homo sapiens), sequence (O76083 whole entry): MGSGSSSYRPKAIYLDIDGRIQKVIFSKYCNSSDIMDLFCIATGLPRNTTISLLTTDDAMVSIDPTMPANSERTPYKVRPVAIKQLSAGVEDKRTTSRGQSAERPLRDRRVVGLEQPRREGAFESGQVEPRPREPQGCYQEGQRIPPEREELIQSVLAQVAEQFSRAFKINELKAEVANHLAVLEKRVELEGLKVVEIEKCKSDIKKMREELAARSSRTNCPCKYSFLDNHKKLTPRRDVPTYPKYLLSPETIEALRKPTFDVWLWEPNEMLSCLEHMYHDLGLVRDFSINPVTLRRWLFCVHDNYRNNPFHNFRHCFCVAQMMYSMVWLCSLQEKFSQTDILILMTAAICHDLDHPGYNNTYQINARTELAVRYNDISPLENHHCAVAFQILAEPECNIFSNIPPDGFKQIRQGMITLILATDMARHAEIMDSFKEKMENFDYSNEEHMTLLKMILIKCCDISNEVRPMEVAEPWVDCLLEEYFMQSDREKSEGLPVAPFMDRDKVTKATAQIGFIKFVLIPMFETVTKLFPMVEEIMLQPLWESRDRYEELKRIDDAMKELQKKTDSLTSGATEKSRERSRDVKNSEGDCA
Data set [14] in a line: Drug uptake in C57 mouse brain at 10 mg/kg, ip after 30 mins. Type of data set: ADME, organism-based. The arrangement: dose 10 mg/kg, route intraperitoneal. To be noted: read-out: Drug uptake.
A short description of data set [15]: Plasma concentration in C57 mouse at 10 mg/kg, ip after 30 mins. Type of data set: ADME, organism-based. The arrangement: dose 10 mg/kg, route intraperitoneal.
Data set [16] addresses Dual 3',5'-cyclic-AMP and -GMP phosphodiesterase 11A (Homo sapiens) (UniProt Q9HCR9). Nature of the data set: Inhibition of cloned human recombinant PDE11A assessed as [3H]cAMP hydrolysis at 10 uM by radiometric assay.
The target of data set [17] is T2, 3',5'-cyclic-AMP phosphodiesterase 4D. Nature of the data set: Inhibition of cloned human recombinant PDE4D assessed as [3H]cAMP hydrolysis at 10 uM by radiometric assay.
The nature of data set [18]: Metabolic stability in mouse liver microsomes assessed as compound remaining after 60 mins. It counts as ADME, Microsome. The following applies: read-out: Stability.
A short description of data set [19]: Tmax in C57 mouse at 10 mg/kg, ip. It counts as ADME, organism-based. More on the design: dose 10 mg/kg, route intraperitoneal. To be noted: in vivo.
Data set [20] has as its target cGMP-specific 3',5'-cyclic phosphodiesterase (Homo sapiens) (UniProt O76074). Nature of the data set: Inhibition of cloned human recombinant PDE5A assessed as [3H]cAMP hydrolysis at 10 uM by radiometric assay.
In data set [21] the target is 3',5'-cyclic-AMP phosphodiesterase 7B (Homo sapiens, UniProt Q9NP56). Nature of the data set: Inhibition of cloned human recombinant PDE7B assessed as [3H]cAMP hydrolysis by radiometric assay.
Data set [22] can be described thus: Metabolic stability in rat liver microsomes assessed as compound remaining after 60 mins. Type of data set: ADME, Microsome. The following applies: read-out: Stability.
A short description of data set [23]: Cmax in C57 mouse at 10 mg/kg, ip. Type of data set: ADME, organism-based. The arrangement: dose 10 mg/kg, route intraperitoneal. The following applies: in vivo.
Data set [24] is filed under the species Homo sapiens. The data set is described as follows: Selectivity ratio of IC50 for cloned human recombinant PDE4D to IC50 for cloned human recombinant PDE7B.
Data set [25] concerns Mus musculus. The data set is described as follows: Antiparkinsonian activity in C57BL/6 mouse assessed as decrease in MPTP-induced vertical rearing behavior impairment at 15 mg/kg, sc administered 30 mins on day 7 post MPTP challenge. Type of data set: functional, organism-based. More on the design: dose 15 mg/kg.
Data set [26] concerns Mus musculus. Nature of the data set: Neurotoxicity in sc dosed C57BL/6 mouse assessed as induction of catalepsy measured at 0.5 to 1 hr. The following applies: in vivo. It counts as toxicity, organism-based.
For data set [27], the system named is Mus musculus. The data set is described as follows: Antiparkinsonian activity in C57BL/6 mouse assessed as decrease in MPTP-induced vertical rearing behavior impairment at 12.5 mg/kg, ip administered 30 mins on day 7 post MPTP challenge. It counts as functional, organism-based. More on the design: dose 12.5 mg/kg.

The source made the active and inactive calls. No cut-off for these calls is given here.

T1 sequence (Q13946 whole entry): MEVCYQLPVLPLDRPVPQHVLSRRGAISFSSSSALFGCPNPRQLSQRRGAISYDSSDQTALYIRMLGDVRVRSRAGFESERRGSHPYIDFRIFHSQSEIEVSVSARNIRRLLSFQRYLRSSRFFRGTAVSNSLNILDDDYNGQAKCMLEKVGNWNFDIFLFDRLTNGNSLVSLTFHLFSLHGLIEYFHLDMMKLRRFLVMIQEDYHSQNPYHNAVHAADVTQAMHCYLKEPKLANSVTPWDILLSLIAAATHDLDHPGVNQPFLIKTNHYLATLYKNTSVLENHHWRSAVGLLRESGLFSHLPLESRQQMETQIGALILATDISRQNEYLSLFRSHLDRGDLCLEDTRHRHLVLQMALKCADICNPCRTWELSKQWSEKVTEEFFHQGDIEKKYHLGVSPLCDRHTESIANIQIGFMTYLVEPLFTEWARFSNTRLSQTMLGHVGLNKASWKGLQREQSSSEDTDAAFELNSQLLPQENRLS
Dual 3',5'-cyclic-AMP and -GMP phosphodiesterase 11A (Homo sapiens), sequence (Q9HCR9 whole entry, looked up): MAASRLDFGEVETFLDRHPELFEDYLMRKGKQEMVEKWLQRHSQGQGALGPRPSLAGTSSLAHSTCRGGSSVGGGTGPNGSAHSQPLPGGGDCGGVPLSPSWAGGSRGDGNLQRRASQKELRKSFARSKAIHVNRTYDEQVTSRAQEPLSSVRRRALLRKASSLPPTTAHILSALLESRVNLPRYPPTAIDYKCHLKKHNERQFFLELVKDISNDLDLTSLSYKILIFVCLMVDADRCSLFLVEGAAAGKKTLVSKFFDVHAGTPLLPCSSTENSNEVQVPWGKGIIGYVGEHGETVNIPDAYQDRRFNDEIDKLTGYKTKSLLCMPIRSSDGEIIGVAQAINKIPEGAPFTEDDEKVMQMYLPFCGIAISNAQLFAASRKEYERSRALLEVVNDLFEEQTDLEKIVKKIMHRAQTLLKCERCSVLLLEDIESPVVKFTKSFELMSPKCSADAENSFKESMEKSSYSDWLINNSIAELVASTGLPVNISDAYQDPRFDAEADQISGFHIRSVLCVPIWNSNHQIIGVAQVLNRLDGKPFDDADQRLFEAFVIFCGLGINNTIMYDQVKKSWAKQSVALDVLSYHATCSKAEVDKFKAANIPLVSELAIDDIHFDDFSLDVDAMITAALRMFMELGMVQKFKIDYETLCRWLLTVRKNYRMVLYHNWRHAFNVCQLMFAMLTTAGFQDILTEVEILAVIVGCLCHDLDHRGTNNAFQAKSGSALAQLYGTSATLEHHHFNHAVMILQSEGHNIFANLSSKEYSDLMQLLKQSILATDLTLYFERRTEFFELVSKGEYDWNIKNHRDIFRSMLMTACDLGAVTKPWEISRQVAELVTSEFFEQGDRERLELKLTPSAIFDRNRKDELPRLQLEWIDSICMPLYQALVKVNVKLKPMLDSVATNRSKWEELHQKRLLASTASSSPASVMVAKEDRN

With `COc1cc(N2CCC(N)CC2)ccc1-c1nc2c(C)nn(Cc3ccccc3)c(=O)c2[nH]1`, in [1], the inhibition (as a rule, the drop in the measured response relative to a control, in per cent) amounted to 13%.

`COc1cc(N2CC(N)C2)ccc1-c1nc2c(C)nn(C3CCCCC3)c(=O)c2[nH]1`: the IC50 (as a rule, the concentration that gives 50% inhibition) in data set [2] stood at 73 nM.

Regarding `COc1cc(N2CCC(N)CC2)ccc1-c1nc2c(C)nn(C3CCCC3)c(=O)c2[nH]1`, in data set [1], the inhibition came out at 89%.

Regarding `COc1cc(N2CCCNCC2)ccc1-c1nc2c(C)nn(C3CCCCC3)c(=O)c2[nH]1`, the Kp at 0.5 h in [3] is 0.09. The AUC (commonly the area under the concentration-time curve, a measure of exposure) in data set [4] turned out to be 1370 ng·h/mL. Moreover, the Ratio IC50 in [5] was above 200; in data set [24], above 150. The inhibition in data set [6] amounted to 33%; in data set [8], 2%; in [9], 28%; in data set [10], 19%; in [12], 4%; in data set [13], 12%. In addition, the inhibition in data set [16] is 24%; in data set [17], 90%; in [20], 3%. In addition, the remaining at 1 h in data set [7] worked out at 90%; in data set [18], 37%; in [22], 40%. Also, the IC50 came to 12 nM in data set [2], 2900 nM in data set [11] and 19 nM in data set [21]. The concentration at 0.5 h in data set [14] stood at 39 ng/g; in [15] it was 446 ng/mL. Also, the Tmax (as a rule, the time at which the peak concentration occurs) in [19] was found to be 0.25 h. The peak level in [23] (Cmax) was 570 ng/mL.

On to `CCCCC(CC)Cn1nc(C)c2nc(-c3ccc(N4CCC(N)CC4)cc3OC)[nH]c2c1=O` (stereo not given), for which the inhibition in data set [1] was 6%.

As for `COc1cc(CCC(N)=O)ccc1-c1nc2c(C)nn(C3CCCCC3)c(=O)c2[nH]1`, the IC50 in data set [2] worked out at 93 nM.

For `N[C@@H](Cc1ccc(O)c(O)c1)C(=O)O`, the result in data set [25] was Active.

For the molecule `COc1cc(-c2n[nH]c(=O)o2)ccc1-c1nc2c(C)nn(C3CCCCC3)c(=O)c2[nH]1`, in data set [2], the IC50 came to 68 nM.

Consider `COc1cc(N2CC[C@@H](N)C2)ccc1-c1nc2c(C)nn(C3CCCCC3)c(=O)c2[nH]1`, for which the IC50 in data set [2] turned out to be 77 nM.

For the molecule `COc1cc(-c2cn[nH]c2)ccc1-c1nc2c(C)nn(C3CCCCC3)c(=O)c2[nH]1`, the IC50 in data set [2] was determined as 45 nM.

Regarding `COc1cc(O[C@@H]2CCNC2)ccc1-c1nc2c(C)nn(C3CCCCC3)c(=O)c2[nH]1`, the IC50 in [2] is 55 nM.

As to `COc1cc(N2CC(O)C2)ccc1-c1nc2c(C)nn(C3CCCCC3)c(=O)c2[nH]1`, in data set [2], the IC50 amounted to 53 nM.

With `COc1cc(/C=C/C(N)=O)ccc1-c1nc2c(C)nn(C3CCCCC3)c(=O)c2[nH]1`, in [2], the IC50 was determined as 89 nM.

With `COc1cc(N2CCC(N)CC2)ccc1-c1nc2c(C)nn(C3CCN(C)CC3)c(=O)c2[nH]1`, the inhibition in data set [1] is 7%.

With `O=C(CCCN1CCC(O)(c2ccc(Cl)cc2)CC1)c1ccc(F)cc1` [HALOPERIDOL], the Activity entry in data set [26] was “Dose-dependent effect”.

In the case of `COc1cc(N2CCC(N)CC2)ccc1-c1nc2c(C)nn(C3CCCCCC3)c(=O)c2[nH]1`, the inhibition in data set [1] is 92%. For the same molecule, the IC50 in data set [2] stood at 75 nM.

`CNC(=O)Nc1ccc(-c2nc3c(C)nn(C4CCCCC4)c(=O)c3[nH]2)c(OC)c1`: in data set [2], the half-inhibitory concentration (IC50) worked out at 24 nM.

In the case of `COc1cc(C2CC2C(N)=O)ccc1-c1nc2c(C)nn(C3CCCCC3)c(=O)c2[nH]1` (stereo not given), the IC50 in data set [2] was determined as 3 nM.

On to `COc1cc(N2CCC(N)CC2)ccc1-c1nc2c(C)nn(C3CCCCC3)c(=O)c2[nH]1`, for which the inhibition in data set [1] is 96%; in data set [6], 16%; in [8] it was 40%; in [9] it was 40%; in [10] it was 6%; in data set [12], 2%. Moreover, the inhibition is 9% in [13], 44% in data set [16], 81% in [17] and 32% in [20]. The Kp at 0.5 h in data set [3] is 0.1. Further, in data set [4], the AUC was 2300 ng·h/mL. The remaining at 1 h is 100% in [7], 44% in data set [18] and 100% in data set [22]. Moreover, the IC50 in data set [2] was 27 nM; in data set [21], 11 nM. The concentration at 0.5 h in [14] was 46 ng/g; in [15], 451 ng/mL. Moreover, the Tmax in data set [19] is 4 h. Further, the Cmax (as a rule, the maximum level reached in the sampled fluid or tissue) in data set [23] came out at 902 ng/mL.

As to `COc1cc(N2CCC(O)CC2)ccc1-c1nc2c(C)nn(C3CCCCC3)c(=O)c2[nH]1`, the IC50 in data set [2] stood at 81 nM.

Regarding `COc1cc(N2CCNC(=O)C2)ccc1-c1nc2c(C)nn(C3CCCCC3)c(=O)c2[nH]1`, the IC50 in data set [2] was 18 nM.

In the case of `NC(CO)C(=O)NNCc1ccc(O)c(O)c1O` (stereo not given), in [27], the result was Active.

`COc1cc(N2CCCC(O)CC2)ccc1-c1nc2c(C)nn(C3CCCCC3)c(=O)c2[nH]1` (stereo not given): the IC50 in data set [2] was 33 nM.

In the case of `COc1cc(N2CCNCC2)ccc1-c1nc2c(C)nn(C3CCCCC3)c(=O)c2[nH]1`, the IC50 in data set [2] came out at 104 nM.

With `COc1cc(N2CCC(O)C2)ccc1-c1nc2c(C)nn(C3CCCCC3)c(=O)c2[nH]1` (stereo not given), the IC50 in [2] turned out to be 71 nM.

On to `COc1cc(N2CCCN(C(C)=O)CC2)ccc1-c1nc2c(C)nn(C3CCCCC3)c(=O)c2[nH]1`, for which the IC50 in data set [2] is 32 nM.

For the molecule `COc1cc(N2CC[C@H](N)C2)ccc1-c1nc2c(C)nn(C3CCCCC3)c(=O)c2[nH]1`, the IC50 in data set [2] was determined as 80 nM.
